The text below walks through data of patent EP1991561B1, “BRANCHED MULTIMERIC PEPTIDES FOR TUMOR DIAGNOSIS AND THERAPY” (Universita' Degli Studi di Siena, priority 2006, dated 2007).

Like-named read-outs stand apart in the source and are kept apart here.

In series [1] the target is T1, NT receptors (NTR) (Homo sapiens, UniProt P30989).
T1 construct: HT29 human adenocarcinoma cell membranes, that over-express NTR; endogenous in cells; host or cells: HT29 human colon adenocarcinoma cell membranes
The series can be described thus: Inhibition of 125I-NT binding to HT29 cell membranes. To be noted: displacement of 125I-NT, HT29 human adenocarcinoma cell membranes. On the technique in general: Displacement assays read how much labelled ligand stays bound in the presence of the test substance.
Source text: A tetrameric peptide carrying scrambled NT aminoacids (LRIPRY), scramble NT4(8-13), was used as control and allowed to verify sequence specificity.

The test system of series [2] is HT29 cells. The series can be described thus: In vitro cytostatic activity by MTT assay, HT29. Format: cell-based, human. As to the method:
HT29 cells were plated in 0.2 ml aliquots at a density of 5 x 10^3 in a 96-well microplate. Different concentrations of NT4-MTX were added 24 hours after plating. Growth inhibition was assessed by MTT assay 6 days later. The same experiments were carried out with the scramble analog of the conjugate and with free MTX.
The same experiments were performed with the scramble analogue [(LRIPRY)4-MTX] and with unconjugated MTX. SW620 (NTR-expressing human colon carcinoma cell line, Istituto Zooprofilattico Sperimentale, Brescia, Italy) and on HCT116 (NTR-expressing human colon carcinoma cell line, Istituto Zooprofilattico Sperimentale, Brescia, Italy cell lines) were also tested with the same procedure.
In general terms: Formazan colour is commonly taken as a measure of viable cells.

In series [3] the test system is HT29 tumors. As to the method: Female CD-1 nude mice (Charles River Laboratories Inc., Wilmington, MA) 6-7 weeks of age (mean weight of 25 g), were injected subcutaneously in the right flank with of 2 x 10^6 HT29 cells.
Tumor volumes were measured daily with a caliper using the following formula: Volume = length x width^2 x Π/6. The tumor volumes for each group were pooled to plot mean tumor growth curves. At the end of the experiment, the mice were sacrificed. Tumors were removed and weighed and the weights compared between treated and control mice.

Series [4] relates to HT29 tumors. The series can be described thus: In vivo tumor growth retardation, HT29 tumors grafted in nude mice. Also noted: species or system CD-1 nude mice. Conditions: i.v. on days 0, 5, 10 and 15, 4.05 µmol/kg. The source says:
The invention will be now described by non limiting examples referring to the following figures: • FIGURE 1. […] NT4(8-13) peptide binding and cell internalization. […] Lysosome localization of NT4(8-13)-TMR. […] NT4(8-13) binding to colon and pancreas tumoral biopsies. Confocal microscopy images of (A) human sections of colon carcinoma, (B) healthy colon, (C) pancreatic carcinoma and (D) healthy pancreas. […] NTR regeneration. […] NT4(8-13)-Che6 cytotoxicity. […] The cells were then washed to remove unbound conjugate and irradiated (except for dark controls) with a total light dose of 3 J/cm^2. Drug phototoxicity was assessed by measuring cell survival, using the MTT assay 24 hours after irradiation. Negative controls (--) included HT29 cells incubated with the conjugate and not irradiated, cells irradiated and not incubated and untreated cells. • FIGURE 9. […] Inhibition of cell growth was tested by an MTT assay after 72 hours of incubation. • FIGURE 10. In vivo tumor growth retardation mediated by NT4(8-13)-MTX. […] Five days after the last injection, animals were sacrificed and tumors were removed and weighed.

Series [5] has as its system human colon tumors. The series can be described thus: Fluorescent detection of NT receptors in colon biopsy sections. Format: binding. To be noted: 0.5 µg/ml, avidin-FITC.
Procedure: (§2) Tumoral and healthy colon and pancreatic tissues were collected from oncological patients undergoing tumor resection. Frozen tissue tek® (Sakura Finetechnical, Tokyo, Japan) embedded tissues were sliced 15 µm thick in a cryostat (Reichert- Jung 2800 frigocut N) and placed on glass slides. Serial sections of the same biopsy were analysed both by hematoxylin/eosin (H&E) light microscopy and by fluorescent confocal microscopy. For immunofluorescent analysis the sections were fixed by immersion in 3% paraformaldehyde in PBS for 15' at room temperature., washed once and stored over night at 4°C with 0.1 M glycine in PBS. After saturation with fetal calf serum, the slices were incubated for 30' at 37°C with NT4(8-13)-Bio (0.5 µg/ml in PBS-BSA 3%) or with the uncorrelated branched peptide (DDHSAV, SEQ ID No. 4)4-Bio (0.5 µg/ml in PBS-BSA 3%), washed twice with PBS and incubated with avidin-FITC (0.5 µg/ml in PBS-BSA 3%) for 15' at room temperature. After washing, the sections were mounted with Mowiol® (Calbiochem, Cat. No. 475904) and sealed with nail polish. Negative controls were carried out incubating the slices (both tumoral and normal tissues) with avidin-FITC without previous incubation with NT4(8-13)-Bio. The fluorescine signal was observed by confocal laser microscopy (BIO-Rad MRC600) with a 488 nm excitation light.
The subject of series [6] is HT29 cells. The source says: Nonetheless, down-regulation of receptors and their depletion from the membrane may dramatically impair the efficiency of a peptide-based therapy.
The test system of series [7] is healthy and tumoral pancreatic tissues. Conditions: 0.5 µg/ml, avidin-FITC.
Procedure: as §2
In series [8] the test system is HT29 cells. The series can be described thus: Phototoxicity (photokilling) by MTT assay. Conditions: 4 hours at 37°C in the dark, 100 µM to 0.1 µM, irradiated 3 J/cm^2. The class given is cell-based, human. As to the method: In order to assess the phototoxicity of NT4(8-13)-Che6 conjugate, photokilling experiments were carried out on HT29 cells. HT29 cells (2 x 10^4/well) were plated in 96-well microplates. After growing for 2 days, the cells were incubated at 37°C in the dark with different concentrations of NT4-Che6 (from 100 µM to 0.1 µM in RPMI with 10% FCS) for 4 hours. The cells were then washed to remove unbound conjugate and irradiated (except dark controls) with a Zeiss KL1500 tungsten halogen lamp (Zeiss, Jena, Germany) equipped with a 600-800 nm band pass filter (Corion, Franklin, MA) and with two optical fibers placed 1 cm from the well. The plate was placed back in the incubator overnight and the phototoxicity of the conjugate was monitored in a MTT assay. Similar experiments were performed with scramble NT4(8-13)-Che6 [(LRIPRY)4-Che6] and with free Che6. Further controls included HT29 cells incubated with the conjugate and not irradiated, cells irradiated and not incubated and untreated cells.

For series [9], the system named is HT29 cells. The series can be described thus: Confocal laser microscopy receptor binding assay on HT29 cells. Format: cell-based, human. To be noted: 5 µg/ml in PBS - 1% BSA, 1 hour at 4°C. As to the method: (§1) Confocal laser microscopy was used to carry out receptor binding assays. […] After fixing with 4% formalin, the plasma membrane was stained by incubation with concanavalin A-biotin (10 µg/mL in PBS - 1% BSA, Molecular Probes, Cat. No. C21420) at 4°C for 15 min and avidin-FITC (0.5 µg/ml in PBS - 1% BSA, Sigma, Cat. No S3762).

The subject of series [10] is HaCat cells. Conditions: 5 µg/ml, 1h at 4°C. The procedure:
as §1

Series [11] deals with HT29 cells. Conditions: 1 h at 4°C, washed, then 37°C.
The subject of series [12] is HT29 cells. The series can be described thus: Lysosomal localization with lysotracker green in HT29 cells. To be noted: 1 h at 4°C followed by 4 hours in DMEM at 37°C.

As a reminder, the IC50 is the concentration that gives 50% inhibition.

T1 sequence (P30989 whole entry): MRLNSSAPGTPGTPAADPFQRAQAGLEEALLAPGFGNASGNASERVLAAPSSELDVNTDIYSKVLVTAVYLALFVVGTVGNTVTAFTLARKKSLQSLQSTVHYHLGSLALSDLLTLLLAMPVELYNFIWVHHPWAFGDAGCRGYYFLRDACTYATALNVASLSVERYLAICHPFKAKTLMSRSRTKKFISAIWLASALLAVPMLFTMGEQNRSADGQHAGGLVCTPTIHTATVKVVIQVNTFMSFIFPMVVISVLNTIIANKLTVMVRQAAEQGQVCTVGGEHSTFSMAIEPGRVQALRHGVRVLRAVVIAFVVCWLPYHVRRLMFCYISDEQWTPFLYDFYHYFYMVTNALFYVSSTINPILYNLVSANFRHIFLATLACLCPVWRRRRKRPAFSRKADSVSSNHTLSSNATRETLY

In series [1], “tetrabranched NT(8-13)-PEG-Methotrexate [NT4(8-13)-MTX]” registered a half-inhibitory concentration (IC50) of 500 nM. Further, in series [2], the “cytostatic activity (inhibition of cell growth, MTT)” value is “active”. Further, in series [3] (4.05 µmol/kg iv on days 0, 5, 10 and 15), the mice death result is listed as “no mice death was observed”. The Tumor weight result in [3] (at the end of the experiment, 4.05 µmol/kg iv x4) is listed as “significantly reduced”. For the same molecule, in series [3] (iv on days 0, 5, 10 and 15, 4.05 µmol/kg, compared to control mice), the tumor growth entry is recorded as “prevented tumor growth”. Further, in [3] (iv on days 0, 5, 10 and 15, 4.05 µmol/kg, over the whole treatment), the “volume of tumors relative to mice injected with PBS” value is “about one third”.

Consider `CN(Cc1cnc2nc(N)nc(N)c2n1)c1ccc(C(=O)N[C@@H](CCC(=O)O)C(=O)O)cc1` [MTX, Methotrexate], for which the tumor growth result in series [4] (compared to control mice) is listed as “slight decrease in tumor growth”. Besides, the “Tumor weight, measured at the end of the experiment” value in series [4] (five days after the last injection, Fig. 10) is recorded as “almost the same”.

As to “Tetrameric NT(8-13)4-PEG-Biotin [NT4(8-13)-Bio]”, the IC50 in series [1] was 0.1 nM. Also, the “fluorescent staining of tumoral biopsies” value in series [5] (colon tumoral biopsies (ten), 30' at 37°C) was “All colon tumoral specimens were positively stained”. For the same molecule, in series [5] (corresponding normal colon tissue from the same patient), the “fluorescent staining of healthy tissue” value is on record as “only one of the healthy tissues showed a low fluorescent signal”. In [6] (0.5 µg/ml, directly after saturation with NT4(8-13)-TMR), the “green signal (avidin FITC) after receptor saturation” value was “did not produce any detectable green signal”. In addition, the “receptor availability for ligand binding after regeneration” value in [6] (after saturation with NT4(8-13)-TMR, washing and 37°C in culture medium overnight) was “the receptor was again available for ligand binding”. The “binding to tumoral versus healthy tissue” value in series [7] is listed as “Analogous results”.

On to “tetrabranched NT(8-13)4-PEG-Chlorine e6 [NT4(8-13)-Che6]”, for which the IC50 in series [1] is 2200 nM. Moreover, the “phototoxicity (cell survival, MTT)” value in series [8] is “maintained its cytotoxicity”.

For “tetrameric NT(8-13)4-PEG-Tetramethyl rhodamine [NT4(8-13)-TMR]”, the “red fluorescent signal on the plasma membrane” value in series [9] is “binding of the peptide to membrane receptors”. Besides, in series [10], the rhodamine signal entry was “no rhodamine signal”. The “saturation of membrane receptors” value in series [6] (100 µg/ml in PBS - 1% BSA, 1 h at 4°C) is “saturated”. Besides, the peptide fluorescence localization result in series [11] (4 hours) was “completely internalised”; in series [11] (18 hours), “complete degradation of the peptide conjugate”; in series [11] (time 0) it was “localized exclusively on the plasma membrane”; in series [11] (two hours) it was “present on the plasma membrane and in the cytoplasm”. Moreover, in [12], the lysosomal localization entry is on record as “colocalization of NT4(8-13)-TMR with lysotracker green was observed”.
